According to patent publication US20190367520A1, “NEW COMPOUND HAVING FGFR INHIBITORY ACTIVITY AND PREPARATION AND APPLICATION THEREOF” (SHANGHAI INSTITUTE OF MATERIA MEDICA, CHINESE ACADEMY OF …, priority 2016, published 2019):

How the values were obtained:
SNU16 cells = assay: SNU16 cell proliferation (CCK-8, 72 h); format: cell-based; settings: Homo sapiens, SNU-16, read-out: SNU16 (IC50 class)
Procedure: The inhibitory effect of the compound on SNU16 cells proliferation was examined by CCK-8 Cell Counting Kit (Dojindo). The specific steps are as follows: SNU16 cells in logarithmic growth phase were inoculated into a 96-well culture plate at a suitable density, 90 μL per well, and cultured overnight, different concentrations of compounds were added for 72 hr, and the solvent control group was set (negative control). After the cells were treated by the compound for 72 h, the effect of the compound on cell proliferation was detected by CCK-8 cell counting kit (Dojindo). 10 μL of CCK-8 reagent was added to each well and placed in a 37° C. incubator for 2-4 hours. The full-wavelength microplate reader SpectraMax 190 was used at a measure wavelength of 450 nm.

[1] = target: FGFR1 kinase domain recombinant protein (Homo sapiens, UniProt P11362); assay: FGFR1 enzyme activity at molecular level (ELISA, Poly(Glu,Tyr) 4:1 substrate)
Chain of FGFR1 kinase domain recombinant protein (P11362 478-767 limits assumed): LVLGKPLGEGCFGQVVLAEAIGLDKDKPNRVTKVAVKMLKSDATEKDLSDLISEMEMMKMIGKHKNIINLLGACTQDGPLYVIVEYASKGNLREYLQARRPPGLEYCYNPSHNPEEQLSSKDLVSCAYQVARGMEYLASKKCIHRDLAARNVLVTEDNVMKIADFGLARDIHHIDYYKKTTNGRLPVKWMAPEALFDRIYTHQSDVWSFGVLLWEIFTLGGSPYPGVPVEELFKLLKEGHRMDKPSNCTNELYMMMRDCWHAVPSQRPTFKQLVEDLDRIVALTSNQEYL
Procedure: (§1) The plate was placed at 37° C. for 12-16 hours. The liquid in the well was discarded, the plate was washed, and the panel was washed three times with 200 μL/well of T-PBS (PBS containing 0.1% Tween-20) for 5 minutes each time.
(§2) 50 μL of ATP solution diluted with reaction buffer (50 mM HEPES pH 7.4, 50 mM MgCl2, 0.5 mM MnCl2, 0.2 mM Na3VO4, 1 mM DTT) was added to each well to a final concentration of 5 μM. The compound was diluted to a suitable concentration in DMSO, 1 μL/well or containing the corresponding concentration of DMSO (negative control well), and the FGFR1, FGFR4 kinase domain recombinant protein diluted in 49 μL of reaction buffer was added to initiate the reaction. Two control wells without ATP were required for each experiment. The reaction was carried out for 1 hour at 37° C. on a shaker (100 rpm). The plate was washed three times with T-PBS. Primary antibody, PY99 dilution was added at 100 μL/well and shaken at 37° C. for 0.5 hour. The plate was washed three times with T-PBS. Secondary antibody, horseradish peroxidase-labeled goat anti-mouse IgG dilution was added at 100 μL/well, and shaken at 37° C. for 0.5 hour. […] (Ultrasound was required for the dissolution of OPD, and the chromogenic solution needed to be prepared when used). 2 M H2SO4 was added at 50 μL/well to quench the reaction and a tunable wavelength microplate reader SPECTRA MAX 190 was used at a wavelength of 490 nm.
(§3) The inhibition rate of the sample was obtained by the following formula:
(§4) The IC50 value was obtained by four-parameter regression using the software attached to the microplate reader.

[2] = target: FGFR4 kinase domain recombinant protein (Homo sapiens, UniProt P22455); assay: FGFR4 enzyme activity at molecular level (ELISA, Poly(Glu,Tyr) 4:1 substrate)
Chain of FGFR4 kinase domain recombinant protein (P22455 467-755 limits assumed): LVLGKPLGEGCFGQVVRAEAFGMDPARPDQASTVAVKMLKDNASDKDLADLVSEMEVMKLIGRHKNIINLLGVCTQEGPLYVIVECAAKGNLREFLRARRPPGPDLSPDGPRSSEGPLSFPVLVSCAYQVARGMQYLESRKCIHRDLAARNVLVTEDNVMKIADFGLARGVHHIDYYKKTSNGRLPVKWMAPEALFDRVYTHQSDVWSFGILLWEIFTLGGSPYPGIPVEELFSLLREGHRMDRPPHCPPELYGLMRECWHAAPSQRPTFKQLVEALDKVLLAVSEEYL
Procedure: as §1, §2, §3, §4

Row | Compound | IC50 (SNU16 cells) | IC50 [1] | IC50 [2] | FGFR inhibitory activity (in words) ([1]; FGFR1 and FGFR4 enzymes, conclusion from Table 2)
1 | C=C(CN1CCOCC1)C(=O)N1CC(n2cc(-c3cc4cc(C)cc(OC)c4s3)c3c(N)ncnc32)C1 [NO. 31, 1-(3-(4-amino-5-(7-methoxy-5-methylbenzothiophene-2-yl)-7H-pyrrole[2,3-d]pyrimidine-7-yl)azetidine-1-yl)-2-(morpholinomethylene)prop-2-en-1-one] | < 10 nM | < 10 nM | < 10 nM | –
2 | C=CC(=O)N1CCC(n2cc(-c3ccc4[nH]c(C)nc4c3)c3c(N)ncnc32)C1 (stereo not drawn) [NO. 36, 1-(3-(4-amino-5-(2-methyl-1H-benzimidazol-5-yl)-7H-pyrrole[2,3-d]pyrimidine-7-yl)pyrrolidine-1-yl)prop-2-en-1-one] | > 100 nM | 10 to 100 nM | 10 to 100 nM | –
3 | C=CC(=O)N1CC[C@H](n2cc(-c3cnc4ccccc4c3)c3c(N)ncnc32)C1 [Control compound, (S)-1-(3-(4-amino-5-(quinolin-3-yl)-7H-pyrrole[2,3-d]pyrimidine-7-yl)pyrrolidine-1-yl)prop-2-en-1-one, reference compound] | – | > 100 nM | 10 to 100 nM | substantially no FGFR inhibitory activity
4 | COc1cc(C)cc2cc(-c3cn(C4CN(C(=O)/C=C/CN(C)C)C4)c4ncnc(N)c34)sc12 [NO. 19, (E)-1-(3-(4-amino-5-(7-methoxy-5-methylbenzothiophene-2-yl)-7H-pyrrole[2,3-d]pyrimidine-7-yl)azetidin-1-yl)-4-(dimethylamino)but-2-en-1-one] | – | < 10 nM | 10 to 100 nM | –
5 | C=CS(=O)(=O)N1CC(n2cc(-c3cc4cc(C)cc(OC)c4s3)c3c(N)ncnc32)C1 [NO. 28, 5-(7-methoxy-5-methylbenzothiophene-2-yl)-7-(1-(vinylsulfonyl)azetidine-3-yl)-7H-pyrrole[2,3-d]pyrimidine-4-amine] | > 100 nM | < 10 nM | – | –
6 | C=C(CN1CCN(C)CC1)C(=O)N1CC[C@H](n2cc(-c3cc4cc(C)cc(OC)c4s3)c3c(N)ncnc32)C1 [NO. 49, (S) 1-(3-(4-amino-5-(7-methoxy-5-methylbenzothiophene-2-yl)-7H-pyrrole[2,3-d]pyrimidine-7-yl)pyrrolidine-1-yl)-2-((4-methylpiperazin-1-yl)-methylene)prop-2-en-1-one] | – | 10 to 100 nM | < 10 nM | –
7 | C/C=C/C(=O)N1CCC(n2cc(-c3cc4cc(C)cc(OC)c4s3)c3c(N)ncnc32)C1 (stereo not drawn) [NO. 18, (E)-1-(3-(4-amino-5-(7-methoxy-5-methylbenzothiophene-2-yl)-7H-pyrrole[2,3-d]pyrimidine-7-yl)pyrrolidine-1-yl)but-2-en-1-one] | – | < 10 nM | 10 to 100 nM | –
8 | C=CC(=O)N1CCC(n2cc(-c3ccc4c(N)n[nH]c4c3)c3c(N)ncnc32)C1 (stereo not drawn) [NO. 80, 1-(3-(4-amino-5-(3-amino-1H-indazol-6-yl)-7H-pyrrole[2,3-d]pyrimidine-7-yl)pyrrolidine-1-yl)prop-2-en-1-one] | – | > 100 nM | > 100 nM | –
9 | C=C(CN1CCOCC1)C(=O)N1CC[C@H](n2cc(-c3cc4cc(C)cc(OC)c4s3)c3c(N)ncnc32)C1 [NO. 45, (S) 1-(3-(4-amino-5-(7-methoxy-5-methylbenzothiophane-2-yl)-7H-pyrrole[2,3-d]pyrimidine-7-yl)pyrrolidine-1-yl)-2-(morpholinemethylene)prop-2-en-1-one] | – | 10 to 100 nM | < 10 nM | –
10 | COc1cc(C)cc2cc(-c3cn(C4CN(C(=O)/C=C/CN5CCCC5)C4)c4ncnc(N)c34)sc12 [NO. 17] | – | < 10 nM | 10 to 100 nM | –
11 | C=CC(=O)N1CC(n2cc(-c3cc4c(OC)ccc(OC)c4s3)c3c(N)ncnc32)C1 [NO. 41, 1-(3-(4-amino-5-(4,7-dimethoxybenzothiophen-2-yl)-7H-pyrrole[2,3-d]pyrimidine-7-yl)azetidine-1-yl)prop-2-en-1-one] | 10 to 100 nM | – | – | –
12 | C=C(CN(CC)CC)C(=O)N1CC[C@H](n2cc(-c3cc4cc(C)cc(OC)c4s3)c3c(N)ncnc32)C1 [NO. 46, (S) 1-(3-(4-amino-5-(7-methoxy-5-methylbenzothiophene-2-yl)-7H-pyrrole[2,3-d]pyrimidine-7-yl)pyrrolidine-1-yl)-2-((diethylamino)methylene)prop-2-en-1-one] | – | 10 to 100 nM | < 10 nM | –
13 | COCCN(C)C/C=C/C(=O)N1CCC(n2cc(-c3cc4cc(C)cc(OC)c4s3)c3c(N)ncnc32)C1 (stereo not drawn) [NO. 81, (E)-1-(3-(4-amino-5-(7-methoxy-5-methylbenzothiophene-2-yl)-7H-pyrrole[2,3-d]pyrimidine-7-yl)pyrrolidine-1-yl)-4-((2-methoxyethyl) (methyl)amino)but-2-en-1-one] | – | < 10 nM | 10 to 100 nM | –
14 | COc1cc(C)cc2cc(-c3cn(C4CCN(C(=O)/C=C/CN5CCCC5)C4)c4ncnc(N)c34)sc12 (stereo not drawn) [NO. 7, (E)1-(3-(4-amino-5-(7-methoxy-5-methylbenzothiophene-2-yl)-7H-pyrrole[2,3-d]pyrimidine-7-yl)pyrrolidine-1-yl)-4-(pyrrolidine-1-yl)but-2-en-1-one] | – | < 10 nM | 10 to 100 nM | –

Now from value to compound, other results behind:

Row | IC50 (SNU16 cells) | IC50 [1] | IC50 [2] | Compound | FGFR inhibitory activity (in words) ([1]; FGFR1 and FGFR4 enzymes, conclusion from Table 2)
15 | > 100 nM | < 10 nM | < 10 nM | C=CS(=O)(=O)N1CC[C@H](n2nc(-c3cc4cc(C)cc(OC)c4s3)c3c(N)ncnc32)C1 [NO. 40] | –
16 | < 10 nM | < 10 nM | > 100 nM | COc1cc(C)cc2cc(-c3nn([C@H]4CCN(C(=O)/C=C/CN(C)C)C4)c4ncnc(N)c34)sc12 [NO. 38] | –
17 | > 100 nM | < 10 nM | < 10 nM | C=CC(=O)N1CC(n2nc(-c3cc4cc(C)cc(OC)c4s3)c3c(N)ncnc32)C1 [NO. 26, 1-(3-(4-amino-3-(7-methoxy-5-methylbenzothiophene-2-yl)-1H-pyrazole[3,4-d]pyrimidine-1-yl)azetidine-1-yl)prop-2-en-1-one] | –
18 | – | < 10 nM | 10 to 100 nM | C=CC(=O)Nc1cccc(Cn2nc(-c3cc4cc(C)cc(OC)c4s3)c3c(N)ncnc32)c1 [NO. 78, N-(3-((4-amino-3-(7-methoxy-5-methylbenzothiophene-2-yl)-1H-pyrazole[3,4-d]pyrimidine-1-yl)methyl)phenyl)acrylamide] | –
19 | < 10 nM | < 10 nM | < 10 nM | C=CC(=O)N1CCC(n2cc(-c3cc4cc(C)cc(OC)c4s3)c3c(N)ncnc32)C1 (stereo not drawn) [NO. 1, 1-(3-(4-amino-5-(7-methoxy-5-methylbenzothiophen-2-yl)-7H-pyrrole[2,3-d]pyrimidine-7-yl)pyrrolidine-1-yl)prop-2-en-1-one] | –
20 | – | < 10 nM | > 100 nM | COc1cc(C)cc2cc(-c3nn(C4CCN(C(=O)CCl)C4)c4ncnc(N)c34)sc12 (stereo not drawn) [NO. 84, 1-(3-(4-amino-3-(7-methoxy-5-methylbenzothiophene-2-yl)-1H-pyrazole[3,4-d]pyrimidine-1-yl)pyrrolidine-1-yl)-2-chloroethane-1-one] | –
21 | > 100 nM | < 10 nM | < 10 nM | C#CC(=O)N1CC[C@H](n2nc(-c3cc4cc(C)cc(OC)c4s3)c3c(N)ncnc32)C1 [NO. 39, (S)-1-(3-(4-amino-3-(7-methoxy-5-methylbenzothiophene-2-yl)1H-pyrazolo[3,4-d]pyrimidine-1-yl)pyrrolidin-yl)prop-2-yn-1-one] | –
22 | – | < 10 nM | < 10 nM | C=C(CN1CCOCC1)C(=O)N1CC(n2nc(-c3cc4cc(C)cc(OC)c4s3)c3c(N)ncnc32)C1 [NO. 55, 1-(3-(4-amino-3-(7-methoxy-5-methylbenzothiophene-2-yl)-1H-pyrazole[3,4-d]pyrimidin-yl)azetidine-1-yl)-2-(morpholinemethylene)prop-2-en-1-one] | –
23 | < 10 nM | < 10 nM | 10 to 100 nM | C=C(F)C(=O)N1CC(n2cc(-c3cc4cc(C)cc(OC)c4s3)c3c(N)ncnc32)C1 [NO. 29] | –
24 | < 10 nM | < 10 nM | 10 to 100 nM | C=CC(=O)N1CCC(n2nc(-c3cc4cc(C)cc(OC)c4s3)c3c(N)ncnc32)C1 (stereo not drawn) [NO. 2, 1-(3-(4-amino-3-(7-methoxy-5-methylbenzothiophene-2-yl)-1H-pyrazole[3,4-d]pyrimidine-1-yl)pyrrolidine-1-yl)prop-2-en-1-one] | –
25 | – | < 10 nM | < 10 nM | C=CC(=O)N1CC[C@H](n2nc(-c3cc4cc(C)cc(OC)c4s3)c3c(N)ncnc32)C1 [NO. 56, (S) 1-(3-(4-amino-3-(7-methoxy-5-methylbenzothiophene-2-yl)-1H-pyrazole[3,4-d]pyrimidine-1-yl)pyrrolidine-1-yl)prop-2-en-1-one] | –
26 | – | < 10 nM | < 10 nM | C=C(CN(C)C)C(=O)N1CC(n2cc(-c3cc4cc(C)cc(OC)c4s3)c3c(N)ncnc32)C1 [NO. 53, 1-(3-(4-amino-5-(7-methoxy-5-methylbenzothiophene-2-yl)-7H-pyrrole[2,3-d]pyrimidine-7-yl)azetidine-1-yl)-2-((dimethylamino)methylene)prop-2-en-1-one] | –
27 | > 100 nM | < 10 nM | 10 to 100 nM | C#CC(=O)N1CC(n2nc(-c3cc4cc(C)cc(OC)c4s3)c3c(N)ncnc32)C1 [NO. 27] | –
28 | – | 10 to 100 nM | > 100 nM | COc1cc(C)cc2cc(-c3cn(C4CCNC4)c4ncnc(N)c34)sc12 (stereo not drawn) [NO. 9, 5-(7-methoxy-5-methylbenzothiophene-2-yl)-7-(pyrrolidine-3-yl)-7H-pyrrole[2,3-d]pyrimidine-4-amine] | –
